Read-outs that look alike come from different tables or passages of the source. One block for each compound: values may come before it.
How the values were obtained:
Assay type in all cases: cell-based
[1] = system: Human Monocytic Leukemia MV4-11; test: Cell proliferation experiment (Alarm blue, 72 h, EC50); conditions: Homo sapiens
Summary of the method: (§1)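 Single-cell suspensions from log-phase cultures are plated, compound in complete medium is added at 5-fold dilution steps (two replicates each), and cells grow for 72 h. Viability is then measured as Alamar blue fluorescence, giving EC50 by sigmoidal fitting.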

[2] = system: Human Acute Myelomonocytic Leukemia HL-60; test: as above; conditions: HL-60 cells
Summary of the method: as §1

Human Colon Cancer HT-29 = test: as above; conditions: HT-29 cells
Summary of the method: as §1

[3] = system: Human Breast Cancer MDA-MB-231; test: as above; conditions: MDA-MB-231 cells
Summary of the method: as §1

[4] = system: Human Colon Cancer HCT-116; test: as above; conditions: HCT116 cells
Summary of the method: as §1

[5] = system: Human cervical adenocarcinoma cells Hela; test: as above
Summary of the method: as §1

[6] = system: Human Small Cell Lung Cancer NCI-H82; test: as above; conditions: Homo sapiens, NCI-H82; NCIH82 cells
Summary of the method: as §1

[7] = system: Human Glioma Cells U-87 MG; test: as above; conditions: Homo sapiens; U-87MG cells
Summary of the method: as §1

[8] = system: Human Monocytic Leukemia THP-1; test: as above; conditions: THP-1 cells
Summary of the method: as §1

[9] = system: Human Acute Lymphoblastic Leukemia Cells MOLT-4; test: as above; conditions: MOL4-4 cells
Summary of the method: as §1

BRD4 = biological target: T1, BRD4 (Homo sapiens, UniProt O60885); test: Western blot, protein degradation (DC50); conditions: western blot
T1 construct: endogenous in cells
Procedure: (§2) Cells were treated with the compound for a period of time, after that the cells were collected by centrifugation. After washing with PBS, the cells were lysed by adding RIPA buffer; the cell lysate were added to the loading buffer and then appropriate volume were taken and slowly added to the corresponding wells of the gel plate, and run the SDS-PAGE gel (4%-12%). After running the gel, transferred to the PVDF membrane and sealed with 5% skimmed milk powder at room temperature for 1 hour. The membrane was placed in the primary antibody diluted with 5% skimmed milk powder and shaked slowly overnight at 4° C. After incubation with primary antibody, the membrane was washed 3 times using a TBST shaker; added secondary antibody diluted with 5% skimmed milk powder corresponding to the primary antibody, and shaked slowly at room temperature for 1 hour. After incubation with secondary antibody, the membrane was washed 3 times using the TBST shaker again. The PVDF membrane was flatted in the cassette, the strip was evenly infiltrated with ECL developer solution, and placed in ChemDoc XRS+ gel imager for taking pictures. The intensity of protein bands was analyzed quantitatively using ImageJ software.

PLK1 = biological target: T2, PLK1 (Homo sapiens, UniProt P53350); test: Western blot, protein degradation (DC50); conditions: western blot
T2 construct: endogenous in cells
Procedure: as §2

Daudi = test: Cell proliferation experiment (EC50), Daudi; conditions: Homo sapiens; Daudi cells
[10] = 24 h, read-out: BRD4 DC50 (24 h)
[11] = 24 h, read-out: PLK1 DC50 (24 h)

T2 sequence (P53350 whole entry): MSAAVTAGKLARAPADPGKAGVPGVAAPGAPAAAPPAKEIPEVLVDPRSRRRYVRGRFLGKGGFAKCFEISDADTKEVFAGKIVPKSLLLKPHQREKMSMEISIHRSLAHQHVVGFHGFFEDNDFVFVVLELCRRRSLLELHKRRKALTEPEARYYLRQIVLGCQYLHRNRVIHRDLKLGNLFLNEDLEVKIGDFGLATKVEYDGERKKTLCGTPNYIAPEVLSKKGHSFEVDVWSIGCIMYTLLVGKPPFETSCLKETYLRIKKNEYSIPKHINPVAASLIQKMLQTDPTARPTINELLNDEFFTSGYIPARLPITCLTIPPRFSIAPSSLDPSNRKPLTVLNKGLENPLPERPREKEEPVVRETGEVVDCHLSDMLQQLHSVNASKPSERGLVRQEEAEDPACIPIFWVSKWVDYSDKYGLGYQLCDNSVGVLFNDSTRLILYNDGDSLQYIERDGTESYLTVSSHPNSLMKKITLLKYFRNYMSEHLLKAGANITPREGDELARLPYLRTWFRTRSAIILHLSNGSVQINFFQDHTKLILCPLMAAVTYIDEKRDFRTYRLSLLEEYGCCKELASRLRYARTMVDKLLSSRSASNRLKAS

Compound: CC(OC(=O)N(CCOCCOCCOCCNC(=O)[C@]1(Cc2cccc(Nc3nccs3)n2)CC[C@@H](Oc2cccc(Cl)c2F)CC1)CC(=O)Nc1cccc2c1CN(C1CCC(=O)NC1=O)C2=O)C(C)SSC[C@H](NC(=O)[C@@H](CC(=O)O)NC(=O)[C@@H](CC(=O)O)NC(=O)[C@@H](CCCNC(=N)N)NC(=O)[C@@H](CC(=O)O)NC(=O)CC[C@H](NC(=O)c1ccc(NCc2cnc3nc(N)[nH]c(=O)c3n2)cc1)C(=O)O)C(=O)O (stereo partly shown) [UB-180839]
EC50 (Human Colon Cancer HT-29): 100 to 1000 nM
EC50 [3]: 100 to 1000 nM
EC50 [4]: 100 to 1000 nM
EC50 [5]: 100 to 1000 nM

Compound: CC[C@@H]1C(=O)N(C)c2cnc(Nc3ccc(C(=O)NCc4cn(CCNCC(=O)Nc5cccc6c5CN(C5CCC(=O)NC5=O)C6=O)nn4)cc3OC)nc2N1C1CCCC1 (stereo partly shown) [UB-180691]
EC50 ([1]; MV4-11, MV4;11 cells): 10 to 100 nM
EC50 (Human Colon Cancer HT-29; Homo sapiens): 100 to 1000 nM

Compound: CC[C@@H]1C(=O)N(C)c2cnc(Nc3ccc(C(=O)NCCOCCOCCOCCNCCCCC(=O)Nc4cccc5c4CN(C4CCC(=O)NC4=O)C5=O)cc3OC)nc2N1Cc1ccc(Br)cc1 (stereo partly shown) [UB-180667]
EC50 [6]: 100 to 1000 nM
EC50 ([1]; MV4;11 cells): 10 to 100 nM
EC50 (Human Colon Cancer HT-29; Homo sapiens): 100 to 1000 nM
EC50 ([3]; Homo sapiens): 100 to 1000 nM
EC50 [2]: 100 to 1000 nM
EC50 [7]: 100 to 1000 nM
EC50 [9]: 100 to 1000 nM
DC50 (BRD4; [10]): < 10 nM
DC50 (PLK1; [11]): < 10 nM

Compound: CC[C@@H]1C(=O)N(C)c2cnc(Nc3ccc(C(=O)NCCOCCOCCOCC(=O)Nc4cccc5c4CN(C4CCC(=O)NC4=O)C5=O)cc3OC)nc2N1Cc1ccc(Br)cc1 (stereo partly shown) [UB-180566]
EC50 [6]: > 1000 nM
EC50 ([1]; MV4-11, MV4;11 cells): < 10 nM
EC50 ([4]; Homo sapiens, HCT-116): 100 to 1000 nM
DC50 (BRD4; 6 h, read-out: BRD4 DC50 (6 h)): < 10 nM
DC50 (PLK1; 6 h, read-out: PLK1 DC50 (6 h)): < 10 nM

Compound: CC[C@@H]1C(=O)N(C)c2cnc(Nc3ccc(C(=O)NC4CCN(CCOCCNCC(=O)Nc5cccc6c5CN(C5CCC(=O)NC5=O)C6=O)CC4)cc3OC)nc2N1C1CCCC1 (stereo partly shown) [UB-180699]
EC50 [6]: 100 to 1000 nM
EC50 ([1]; MV4;11 cells): 10 to 100 nM
EC50 (Human Colon Cancer HT-29; Homo sapiens): 100 to 1000 nM
EC50 ([3]; Homo sapiens): > 1000 nM
EC50 [2]: 100 to 1000 nM
EC50 [7]: 100 to 1000 nM
EC50 ([5]; Homo sapiens): 100 to 1000 nM
EC50 [8]: 100 to 1000 nM
EC50 [9]: 100 to 1000 nM
DC50 (BRD4; [10]): < 10 nM
DC50 (PLK1; [11]): < 10 nM

Compound: CC[C@@H]1C(=O)N(C)c2cnc(Nc3ccc(C(=O)NC4CCN(CCOCCN(CC(=O)Nc5cccc6c5CN(C5CCC(=O)NC5=O)C6=O)C(=O)OC(C)C(C)SSC[C@@H](NC(=O)[C@@H](CC(=O)O)NC(=O)[C@@H](CC(=O)O)NC(=O)[C@@H](CCCNC(=N)N)NC(=O)[C@@H](CC(=O)O)NC(=O)CC[C@H](NC(=O)c5ccc(NCc6cnc7nc(N)[nH]c(=O)c7n6)cc5)C(=O)O)C(=O)O)CC4)cc3OC)nc2N1C1CCCC1 (stereo partly shown) [UB-180838]
EC50 (Human Colon Cancer HT-29): 100 to 1000 nM
EC50 [3]: 100 to 1000 nM
EC50 [4]: 100 to 1000 nM
EC50 [5]: 100 to 1000 nM

More lines, now with the values ahead:

EC50 ([1]; MV4-11, MV4;11 cells): 100 to 1000 nM
EC50 [2]: > 1000 nM
Compound: O=C1CCC(N2Cc3c(NC(=O)CNCCOCCOCCOCCNC(=O)c4ccc(Nc5ncc6c(n5)-c5ccc(Cl)cc5C(c5c(F)cccc5F)=NC6)cc4)cccc3C2=O)C(=O)N1 (stereo not shown) [UB-180727]

EC50 [6]: > 1000 nM
EC50 ([1]; MV4-11, MV4;11 cells): < 10 nM
EC50 (Human Colon Cancer HT-29; Homo sapiens): 100 to 1000 nM
EC50 ([3]; Homo sapiens): 100 to 1000 nM
EC50 ([4]; Homo sapiens, HCT-116): > 1000 nM
EC50 [2]: 100 to 1000 nM
EC50 [7]: 100 to 1000 nM
EC50 ([5]; Homo sapiens): 100 to 1000 nM
EC50 [8]: 100 to 1000 nM
Compound: CC[C@@H]1C(=O)N(C)c2cnc(Nc3ccc(C(=O)NCCOCCOCCOCCNCCC(=O)Nc4cccc5c4CN(C4CCC(=O)NC4=O)C5=O)cc3OC)nc2N1Cc1ccc(Br)cc1 (stereo partly shown) [UB-180634]

EC50 ([1]; MV4-11, MV4;11 cells): 10 to 100 nM
EC50 (Human Colon Cancer HT-29; Homo sapiens): 100 to 1000 nM
Compound: CC[C@@H]1C(=O)N(C)c2cnc(Nc3ccc(C(=O)NCc4cn(CCOCCNCCC(=O)Nc5cccc6c5CN(C5CCC(=O)NC5=O)C6=O)nn4)cc3OC)nc2N1C1CCCC1 (stereo partly shown) [UB-180707]

EC50 (Daudi): 100 to 1000 nM
EC50 [6]: 100 to 1000 nM
EC50 ([1]; MV4-11, MV4;11 cells): 100 to 1000 nM
EC50 (Human Colon Cancer HT-29; Homo sapiens): 100 to 1000 nM
EC50 [7]: 100 to 1000 nM
Compound: CC[C@@H]1C(=O)N(C)c2cnc(Nc3ccc(C(=O)NCCC[C@@H](N)C(=O)Nc4cccc5c4CN(C4CCC(=O)NC4=O)C5=O)cc3OC)nc2N1C1CCCC1 (stereo partly shown) [UB-180856]

EC50 [6]: > 1000 nM
EC50 ([1]; MV4-11, MV4;11 cells): 10 to 100 nM
EC50 (Human Colon Cancer HT-29; Homo sapiens): 100 to 1000 nM
EC50 ([3]; Homo sapiens): 100 to 1000 nM
EC50 ([4]; Homo sapiens, HCT-116): 100 to 1000 nM
EC50 [2]: 100 to 1000 nM
EC50 [7]: 100 to 1000 nM
EC50 ([5]; Homo sapiens): 100 to 1000 nM
EC50 [8]: 100 to 1000 nM
DC50 (BRD4; 6 h, read-out: BRD4 DC50 (6 h)): 10 to 100 nM
DC50 (PLK1; 6 h, read-out: PLK1 DC50 (6 h)): 10 to 100 nM
Compound: CC[C@@H]1C(=O)N(C)c2cnc(Nc3ccc(C(=O)NCCCNCCCCC(=O)Nc4cccc5c4CN(C4CCC(=O)NC4=O)C5=O)cc3OC)nc2N1C1CCCC1 (stereo partly shown) [UB-180658]

From patent US20210369853A1, “TARGETED PROTEASE DEGRADATION PLATFORM” (EUBULUS BIOTHERAPEUTICS INC., priority 2018, published 2021)
